Test results: ChEMBL document CHEMBL1201862, “PubChem BioAssay data set” (2004)
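96-well plates; 48 h exposure; 5 concentrations. Endpoints by linear interpolation between flanking doses. Not reached: highest tested concentration assigned. Here, GI50 denotes the concentration required for 50% inhibition of growth.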 Active and inactive are the calls of the source. No stated cut-off is given here; in the data, active = GI50 up to about 1.1 µM and inactive = higher.

How the values were obtained:
Test in all cases: inhibition of tumour cell growth, NCI panel, 48 h
UACC-257 = test system: UACC-257
NCI-H522 = test system: NCI-H522
DU-145 = test system: DU-145
SK-MEL-28 = test system: SK-MEL-28
TK-10 = test system: TK-10
MDA-MB-435 = test system: MDA-MB-435
OVCAR-3 = test system: OVCAR-3
HOP-92 = test system: HOP-92
SK-MEL-5 = test system: SK-MEL-5
HOP-62 = test system: HOP-62
SNB-75 = test system: SNB-75
MDA-MB-231 = test system: MDA-MB-231
ACHN = test system: ACHN
KM12 = test system: KM12
IGROV-1 = test system: IGROV-1
OVCAR-8 = test system: OVCAR-8
A498 = test system: A498
MCF7 = test system: MCF7
NCI/ADR-RES = test system: NCI/ADR-RES
SN12C = test system: SN12C
A549 = test system: A549
BT-549 = test system: BT-549
RPMI-8226 = test system: RPMI-8226
U-251 = test system: U-251
COLO 205 = test system: COLO 205
MOLT-4 = test system: MOLT-4
HL-60 = test system: HL-60
SF-295 = test system: SF-295
UO-31 = test system: UO-31
LOX IMVI = test system: LOX IMVI
SW-620 = test system: SW-620
HCT-15 = test system: HCT-15
HCT-116 = test system: HCT-116
K562 = test system: K562
SF-539 = test system: SF-539
PC-3 = test system: PC-3
OVCAR-5 = test system: OVCAR-5
EKVX = test system: EKVX
CCRF-CEM = test system: CCRF-CEM
Malme-3M = test system: Malme-3M
SF-268 = test system: SF-268
HCC 2998 = test system: HCC 2998
NCI-H226 = test system: NCI-H226
HT-29 = test system: HT-29
MDA-N = test system: MDA-N
NCI-H23 = test system: NCI-H23
RXF 393 = test system: RXF 393
CAKI-1 = test system: CAKI-1
786-0 = test system: 786-0
SR = test system: SR
Hs-578T = test system: Hs-578T
NCI-H460 = test system: NCI-H460
SNB-19 = test system: SNB-19
UACC-62 = test system: UACC-62
M14 = test system: M14
SK-MEL-2 = test system: SK-MEL-2
SK-OV-3 = test system: SK-OV-3
T47D = test system: T47D
OVCAR-4 = test system: OVCAR-4

In the case of `O=C(NCCN1CCOCC1)c1cn2c(ccc3sc4ccccc4c(=O)c32)n1`, the GI50 (UACC-257) is reported as 34.6 µM (inactive), the GI50 (NCI-H522) is reported as 10.7 µM (inactive) and the GI50 (DU-145) is reported as > 100 µM (inactive). For the same molecule, the GI50 (SK-MEL-28) was 46.9 µM (inactive), the GI50 (TK-10) was > 100 µM (inactive) and the GI50 (MDA-MB-435) was 16.4 µM (inactive). For the same molecule, the GI50 (OVCAR-3) was > 100 µM (inactive), the GI50 (HOP-92) was 12.8 µM (inactive) and the GI50 (SK-MEL-5) was 9.77 µM (inactive). The GI50 (HOP-62) was 12.3 µM (inactive), the GI50 (SNB-75) was 24.8 µM (inactive) and the GI50 (MDA-MB-231) was 5.35 µM (inactive). For the same molecule, the GI50 (ACHN) was 5.36 µM (inactive), the GI50 (KM12) was > 100 µM (inactive) and the GI50 (IGROV-1) was 22.9 µM (inactive). The GI50 (OVCAR-8) was > 100 µM (inactive), the GI50 (A498) was 17.3 µM (inactive) and the GI50 (MCF7) was 7.08 µM (inactive). For the same molecule, the GI50 (NCI/ADR-RES) was 20.6 µM (inactive), the GI50 (SN12C) was 13.1 µM (inactive) and the GI50 (A549) was 4.62 µM (inactive). The GI50 (BT-549) was 27.8 µM (inactive), the GI50 (RPMI-8226) was 8.24 µM (inactive) and the GI50 (U-251) was 10 µM (inactive). The GI50 (COLO 205) was 7.24 µM (inactive), the GI50 (MOLT-4) was 3.3 µM (inactive) and the GI50 (HL-60) was 8.02 µM (inactive). The GI50 (SF-295) was 11 µM (inactive), the GI50 (UO-31) was > 100 µM (inactive) and the GI50 (LOX IMVI) was 10.3 µM (inactive). The GI50 (SW-620) was 4.85 µM (inactive), the GI50 (HCT-15) was 10.3 µM and the GI50 (HCT-116) was 5.22 µM (inactive). The GI50 (K562) was 9.86 µM (inactive), the GI50 (SF-539) was 45.3 µM (inactive) and the GI50 (PC-3) was 20.1 µM (inactive). For the same molecule, the GI50 (OVCAR-5) was 10.7 µM (inactive), the GI50 (EKVX) was > 100 µM (inactive) and the GI50 (CCRF-CEM) was > 10 µM (inactive). For the same molecule, the GI50 (Malme-3M) was 22.7 µM (inactive), the GI50 (SF-268) was 12.3 µM (inactive) and the GI50 (HCC 2998) was 10.1 µM (inactive). For the same molecule, the GI50 (NCI-H226) was 32 µM (inactive), the GI50 (HT-29) was 6.56 µM (inactive) and the GI50 (MDA-N) was 28.3 µM (inactive). For the same molecule, the GI50 (NCI-H23) was 20.7 µM (inactive), the GI50 (RXF 393) was 22 µM (inactive) and the GI50 (CAKI-1) was > 100 µM (inactive). For the same molecule, the GI50 (786-0) was 13.6 µM (inactive), the GI50 (SR) was 9.73 µM (inactive) and the GI50 (Hs-578T) was 12.2 µM (inactive). The GI50 (NCI-H460) was 4.02 µM (inactive) and the GI50 (SNB-19) was 87.5 µM (inactive).
In the case of `O=C(CNc1ccc(Cl)cc1Cl)NC1C=Cc2ccc(S(=O)(=O)Nc3ccc(Cl)cc3Cl)cc2C1=O` (stereo not drawn), the GI50 (UACC-257) is reported as > 100 µM (inactive), the GI50 (NCI-H522) is reported as > 100 µM (inactive) and the GI50 (DU-145) is reported as > 100 µM (inactive). The GI50 (SK-MEL-28) was > 100 µM (inactive), the GI50 (TK-10) was > 100 µM (inactive) and the GI50 (MDA-MB-435) was > 100 µM (inactive). For the same molecule, the GI50 (OVCAR-3) was > 100 µM (inactive), the GI50 (HOP-92) was > 100 µM (inactive) and the GI50 (HOP-62) was > 100 µM (inactive). For the same molecule, the GI50 (UACC-62) was > 100 µM (inactive), the GI50 (SNB-75) was > 100 µM (inactive) and the GI50 (MDA-MB-231) was > 100 µM (inactive). For the same molecule, the GI50 (ACHN) was > 100 µM (inactive), the GI50 (KM12) was > 100 µM (inactive) and the GI50 (IGROV-1) was > 100 µM (inactive). For the same molecule, the GI50 (OVCAR-8) was > 100 µM (inactive), the GI50 (MCF7) was > 100 µM (inactive) and the GI50 (NCI/ADR-RES) was > 100 µM (inactive). For the same molecule, the GI50 (SN12C) was > 100 µM (inactive), the GI50 (A549) was > 100 µM (inactive) and the GI50 (BT-549) was > 100 µM (inactive). For the same molecule, the GI50 (RPMI-8226) was 11 µM (inactive), the GI50 (U-251) was > 100 µM (inactive) and the GI50 (COLO 205) was > 100 µM (inactive). The GI50 (MOLT-4) was > 100 µM (inactive), the GI50 (HL-60) was > 100 µM (inactive) and the GI50 (SF-295) was > 100 µM (inactive). The GI50 (UO-31) was 54.2 µM (inactive), the GI50 (LOX IMVI) was > 100 µM (inactive) and the GI50 (SW-620) was > 100 µM (inactive). For the same molecule, the GI50 (HCT-15) was > 100 µM, the GI50 (HCT-116) was > 100 µM (inactive) and the GI50 (K562) was > 100 µM (inactive). The GI50 (SF-539) was > 100 µM (inactive), the GI50 (PC-3) was > 100 µM (inactive) and the GI50 (OVCAR-5) was > 100 µM (inactive). The GI50 (EKVX) was > 100 µM (inactive), the GI50 (CCRF-CEM) was 9.18 µM (inactive) and the GI50 (Malme-3M) was > 100 µM (inactive). For the same molecule, the GI50 (M14) was > 100 µM (inactive), the GI50 (SF-268) was > 100 µM (inactive) and the GI50 (HCC 2998) was > 100 µM (inactive). The GI50 (NCI-H226) was > 100 µM (inactive), the GI50 (SK-MEL-2) was > 100 µM (inactive) and the GI50 (HT-29) was > 100 µM (inactive). The GI50 (MDA-N) was > 100 µM (inactive), the GI50 (NCI-H23) was > 100 µM (inactive) and the GI50 (CAKI-1) was > 100 µM (inactive). The GI50 (SK-OV-3) was > 100 µM (inactive), the GI50 (786-0) was > 100 µM (inactive) and the GI50 (SR) was > 100 µM (inactive). The GI50 (Hs-578T) was > 100 µM (inactive), the GI50 (NCI-H460) was > 100 µM (inactive) and the GI50 (SNB-19) was > 100 µM (inactive).
For `O=C(O)CC[N+]1=CCC(c2ccccc2)(c2ccccc2)O1`, the GI50 (UACC-257) was > 100 µM (inactive), the GI50 (NCI-H522) was > 100 µM (inactive) and the GI50 (DU-145) was > 100 µM (inactive). For the same molecule, the GI50 (SK-MEL-28) was > 100 µM (inactive), the GI50 (TK-10) was > 100 µM (inactive) and the GI50 (MDA-MB-435) was > 100 µM (inactive). The GI50 (OVCAR-3) was > 100 µM (inactive), the GI50 (HOP-92) was > 100 µM (inactive) and the GI50 (SK-MEL-5) was > 100 µM (inactive). The GI50 (HOP-62) was > 100 µM (inactive), the GI50 (UACC-62) was > 100 µM (inactive) and the GI50 (SNB-75) was 44.1 µM (inactive). The GI50 (MDA-MB-231) was > 100 µM (inactive), the GI50 (ACHN) was > 100 µM (inactive) and the GI50 (IGROV-1) was > 100 µM (inactive). For the same molecule, the GI50 (OVCAR-8) was > 100 µM (inactive), the GI50 (A498) was > 100 µM (inactive) and the GI50 (MCF7) was > 100 µM (inactive). For the same molecule, the GI50 (SN12C) was > 100 µM (inactive), the GI50 (A549) was > 100 µM (inactive) and the GI50 (BT-549) was > 100 µM (inactive). The GI50 (T47D) was > 100 µM (inactive), the GI50 (U-251) was > 100 µM (inactive) and the GI50 (OVCAR-4) was > 100 µM (inactive). For the same molecule, the GI50 (COLO 205) was > 100 µM (inactive), the GI50 (MOLT-4) was > 100 µM (inactive) and the GI50 (SF-295) was > 100 µM (inactive). The GI50 (UO-31) was > 100 µM (inactive), the GI50 (SW-620) was > 100 µM (inactive) and the GI50 (HCT-15) was > 100 µM. The GI50 (HCT-116) was > 100 µM (inactive), the GI50 (K562) was > 100 µM (inactive) and the GI50 (SF-539) was > 100 µM (inactive). For the same molecule, the GI50 (PC-3) was > 100 µM (inactive), the GI50 (OVCAR-5) was > 100 µM (inactive) and the GI50 (EKVX) was > 100 µM (inactive). For the same molecule, the GI50 (M14) was > 100 µM (inactive), the GI50 (SF-268) was > 100 µM (inactive) and the GI50 (HCC 2998) was > 100 µM (inactive). The GI50 (NCI-H226) was > 100 µM (inactive), the GI50 (SK-MEL-2) was > 100 µM (inactive) and the GI50 (HT-29) was > 100 µM (inactive). The GI50 (MDA-N) was > 100 µM (inactive), the GI50 (NCI-H23) was > 100 µM (inactive) and the GI50 (RXF 393) was > 100 µM (inactive). For the same molecule, the GI50 (CAKI-1) was > 100 µM (inactive), the GI50 (SK-OV-3) was > 100 µM (inactive) and the GI50 (786-0) was > 100 µM (inactive). For the same molecule, the GI50 (Hs-578T) was > 100 µM (inactive), the GI50 (NCI-H460) was > 100 µM (inactive) and the GI50 (SNB-19) was > 100 µM (inactive).
